Converted amounts (≈) assume the structure as drawn. Like-named read-outs stand apart in the source and are kept apart here. Ends that are not written are not given here.
How the values were obtained:
[1] = system: van-B type E. faecium (ID 553); assay: microbe, parasite or virus in culture; format: cell-based, Enterococcus faecium
Experimental: Sixty-six bacteriocins from Syngulon PARAGEN collection and NAI-107 from Naicons, SRL were screened using the resazurin microtiter assay (REMA)[30],[31]. The MIC for the antimicrobials listed in Table 1 were determined according to the clinical and laboratory standard institute (CLSI) guidelines and the European Committee on Antimicrobial Susceptibility Testing (EUCAST) broth microdilution reference method for MIC determination in E. faecium[32],[33].

[2] = cited from earlier work
Excerpt: This characteristic implies that NAI-107 would require parenteral administration in multiple doses per day for therapeutic use.

[3] = system: methicillin-resistant Staphylococcus aureus; conditions: cited from earlier work
Excerpt: (§1) There are a number of study limitations. […] This hypothesis was motivated by the growing problem of VRE infections. We acknowledge the limitations of this hypothesis. […] This would be of clinica ...

[4] = system: G. mellonella; conditions: G. mellonella model; cited from earlier work
Excerpt: as §1

[5] = system: vanA E. faecalis A533; conditions: administered intravenously to neutropenic mice; cited from earlier work
Excerpt: (§2) Bacteriocins have gained considerable attention as potential alternatives to traditional antibiotics due to their narrow-spectrum activity and a lower likelihood of inducing resistance[11],[12]. Most leaderless bacteriocins such as Lacticin Q (53 aa), Lacticin Z (53 aa), and Garvicin KS have proven to have inhibitory effects against a range of genera such as Listeria, Staphylococcus and ...

[6] = system: vanA E. faecium 569; conditions: administered intravenously to neutropenic mice; cited from earlier work
Excerpt: as §2

[7] = system: vanB-type E. faecium (ID 553); assay: Galleria mellonella E. faecium infection model, in vivo efficacy
Experimental: G. mellonella larvae were treated with a range of doses of vanB-type E. faecium (ID 553) (1 × 10^6–1 × 10^9 CFU/mL) and observed for death alongside phosphate buffer saline (PBS) controls.
Injection of G. mellonella was carried out as described in Dijokaite et al.[21]. The last larval stage of G. mellonella (Terramania, Arnhem, NL) were used for the experiments. Only non-discoloured, healthy larvae were selected. The larvae were injected in the last left proleg using 0.3 mL U-100 insulin syringes (BD Micro-Fine).
Each test group consisted of two groups of 10 larvae per concentration of each bacteriocin or linezolid (10 µg/mL). 30 µl of PBS containing 2.7 × 10^7 CFU E. faecium was used to infect the G. mellonella larva. The larvae were treated with various concentrations of bacteriocins. One positive and two negative control groups were used. The positive control group received only the E. faecium inoculum in PBS. Out of the two negative control groups, one group underwent no manipulation, while the other group was injected with PBS only. Each antimicrobial agent was tested in a single experiment using larvae from the same batch and tested at the same time under identical conditions. Each group were incubated in sterile Petri dishes at 37 °C with a 5% (v/v) CO2 atmosphere for the length of the experiments.
Data were analyzed using GraphPad Prism v9. Survival plots were created using Kaplan–Meier survival curves. Statistical analysis was carried out using the Mantel-Cox test to compare survival curves between the PBS controls and each treatment arm. A P value of < 0.05 was considered statistically significant.

[8] = Enterococcus faecium, micro broth dilution method, van-B type E. faecium (ID 553), read-out: MIC
[9] = micro broth dilution method, van-B type E. faecium (ID 553)
[10] = micro broth dilution method, van-B type E. faecium (ID 553), molar value from deduced molecular weight
[11] = mouse, single subcutaneous dosing of 5, 20 and 80 mg/kg

CC1(C)S[C@@H]2[C@H](NC(=O)[C@H](N)c3ccccc3)C(=O)N2[C@H]1C(=O)O [Ampicillin, reference compound]
MIC [1, 8]: ≥ 32 µg/mL

CC[C@H]1OC(=O)[C@H](C)[C@@H](O[C@H]2C[C@@](C)(OC)[C@@H](O)[C@H](C)O2)[C@H](C)[C@@H](O[C@@H]2O[C@H](C)C[C@H](N(C)C)[C@H]2O)[C@](C)(O)C[C@@H](C)C(=O)[C@H](C)[C@@H](O)[C@]1(C)O [Erythromycin, reference compound]
MIC [1, 8]: ≥ 8 µg/mL

CNC(C)C1CCC(N)C(OC2C(N)CC(N)C(OC3OCC(C)(O)C(NC)C3O)C2O)O1 (stereo not drawn) [Gentamicin, reference compound]
MIC [1, 8]: ≥ 32 µg/mL

CC(=O)NC[C@H]1CN(c2ccc(N3CCOCC3)c(F)c2)C(=O)O1 [Linezolid, reference compound]
MIC [1, 8]: 2 µg/mL (≈ 5.93 µM)

CN(C)[C@@H]1C(O)=C(C(N)=O)C(=O)[C@@]2(O)C(O)=C3C(=O)c4c(O)cccc4[C@@](C)(O)[C@H]3C[C@@H]12 [Tetracycline, reference compound]
MIC [1, 8]: 0.25 µg/mL (≈ 0.563 µM)

CN[C@H](CC(C)C)C(=O)N[C@H]1C(=O)N[C@@H](CC(N)=O)C(=O)N[C@H]2C(=O)N[C@H]3C(=O)N[C@H](C(=O)N[C@H](C(=O)O)c4cc(O)cc(O)c4-c4cc3ccc4O)[C@H](O)c3ccc(c(Cl)c3)Oc3cc2cc(c3O[C@@H]2O[C@H](CO)[C@@H](O)[C@H](O)[C@H]2O[C@H]2C[C@](C)(N)[C@H](O)[C@H](C)O2)Oc2ccc(cc2Cl)[C@H]1O [Vancomycin]
MIC ([1]; Enterococcus faecium): 64 µg/mL (≈ 44.2 µM)

MSWLNFLKYIAKYGKKAVSAAWKYKGKVLEWLNVGPTLEWVWQKLKKIAGL [Aureocin A53]
MIC [1, 9]: 1.56 µg/mL | MIC [1, 10]: 0.2609 µM/L

Microbisporicin
bioavailability ([2]; after intramuscular, intravenous and subcutaneous administration): good bioavailability | AUC [2, 11]: 27000 to 276000 ng·h/mL | Cmax [2, 11]: 4000 to 22000 ng/mL | elimination half-lives [2, 11]: 4.2 to 8.2 h | oral absorption ([2]; oral): not absorbed orally | MIC [1, 9]: 4 µg/mL | MIC [1, 10]: 0.00178 µM/L | efficacy against methicillin-resistant Staphylococcus aureus in rat model [3]: efficacious | toxicity in rat model [3]: non-toxic | concentration up to which no toxicity was exhibited [4]: ≥ 64000 ng/mL | in vivo efficacy [5]: effective | in vivo efficacy [6]: effective | mortality compared with the linezolid (10 µg/mL) treated group ([7]; 16 µg/mL group, 120 h): significantly lower | dose groups with the lowest mortality ([7]; doses tested 2, 4, 8 and 16 µg/mL, 120 h): 8 µg/mL and 16 µg/mL | in vivo efficacy (survival of infected larvae) ([7]; larvae infected with 2.7 × 10^7 CFU E. faecium in 30 µl PBS, 20 larvae per group, 2-16 µg/mL, 120 h at 37 °C): effective in vivo at all doses tested

Teicoplanin [reference compound]
MIC [1, 9]: 0.5 µg/mL

Source: paper PMC10899196, “Protective effect of microbisporicin (NAI-107) against vancomycin resistant Enterococcus faecium infection in a Galleria mellonella model” (Scientific Reports, 2024)
